# Literature values, collected in patent US6107296A, “Neuroprotective use of triazolo-pyridazine derivatives” (Merck Sharp & Dohme, Ltd., priority 1997, dated 2000).
# Tests used:
# [1] = system: selectively vulnerable neuronal populations in the gerbil forebrain; settings: gerbil forebrain ischemia model
# [2] = system: GABAA receptor subtypes containing the α1 and α3 or α5 subunits
# [3] = system: GABAA receptor subtypes containing the α1 and α3 or α5 subunits; settings: partial agonist at each of the α1, α3 or α5 containing receptors
compound,measurement,setting,value
C[C@@H]1CN(C(=O)c2cc3c(C(=O)OC(C)(C)C)ncn3c3ccc(Cl)cc23)C[C@H](C)N1 [PNU-101017],neuronal survival,[1],dose-related increase in neuronal survival
same,affinity for GABAA receptor subtypes,[2],high affinity
same,intrinsic activity relative to the full agonist diazepam,[3],approximately 50%
